Laboratory results: patent publication US4665224A, “Ester of (+) 6-methoxy-α-methyl-2-naphthalene acetic acid having mucosecretolytic, anti-inflammatory, analgesic, antipyretic activity, a process for its preparation and pharmaceutical compositions thereof” (priority 1984, dated 1987)

Legend:
[1] = tested on: yeast induced pyrexia; test: Antipyretic activity, yeast induced pyrexia in the rat; format: in vivo, rat (Wistar albine, female); details: for ED50: Rattus norvegicus, po, read-out: ED50 in mg/kg os.
Description: Method of yeast induced pyrexia in the rat.
Female Wistar albine rats, weighing 100-140 g, are employed. Animals having a rectal basal temperature from 36° to 37° C. are selected.
The testing substances are administered orally simultaneously with the pyretic agent (dry brewer's yeast suspended in water at 20% concentration,administered volume 15 ml/kg, subcutaneously) to groups of 5 animals per dose.
After 4,5,6,7 and 24 hours from the treatment, the rectal temperature of the animals is recorded by an Ellab RM6 probe, connected to an Ellab mod. TE-3 thermometer.
The activity of the drugs is evaluated by utilizing a temperature index which is given by the algebraic sum of the differences in the rectal temperature between the measured values at different times and the basal value.

[2] = tested on: gastric lesions or submucosa hemorrhages; test: Gastric tolerability, gastric ulcerogenesys by repeated drug administrations; format: in vivo, rat (Wistar albine, female); details: rat, oral for 5 days, result in words
Description: Method of gastric ulcerogenesys by repeated drug administrations.
Fed female Wistar albine rats (140-160 g of initial body weight) are used.
The test drug is administered orally for 5 days. At the end of the experiment, the rat's stomach is withdrawn, it is dissected along the lesser curvature, washed and observed in order to disclose the presence of either gastric lesions or manifest submucosa hemorrhages.

[3] = in vivo; details: mouse, in vivo, po
Description: (§1) Method for studying the lethal dose 50 (LD50) in the mouse after a single administration.
(§2) Groups of 10 Swiss albine, female, adult mice (20-22 grams of body weight) fasting from the evening preceding the test, are treated orally with varying doses of the test drup suspended into hydroxyethylcellulose (0.5% w/v.)
(§3) Thereafter, the animals are fed again.

[4] = tested on: mouse; test: in vivo; details: oral, result in words
Description: as §1, §2, §3

[5] = tested on: phenylquinone abdominal contractions; test: Analgesic activity, method of phenylquinone (abdominal contractions); format: in vivo, mouse (Swiss albine, female); details: mouse, oral; for ED50: 20 min, 30 minutes before phenylquinone, contractions during 20 minutes, read-out: ED50 in mg/kg os.
Description: Female Swiss albine mice (20-25 g), fasting since 2 hours are employed.
The test drug is administered orally 30 minutes before endoperitoneal injection of phenylquinone (0.08 mg/mouse).
The characteristic abdominal contractions are counted individually during a 20 minutes period.

[6] = tested on: bronchial mucus; test: Bronchosecretagogue activity, quantitative evaluation of the rabbit bronchial secretion; format: in vivo, rabbit (brown, male); details: for Percent increase of the bronchial mucus: second 4 h period versus first; for bronchosecretagogue / mucolytic activity: oral, result in words
From the text: Method of quantitative evaluation of the rabbit bronchial secretion according to Scuri R. et al. Boll. Chim. Farm. 119, 181-7; 1980.
Adult male brown rabbits (2.8-3.5 kg of body weight) to which a T shaped tracheal cannula is applied by surgical operation, as described in the above cited bibliographic reference, are used.
To the cannula, a container for periodical collection of the bronchial secretion is applied.
The study of mucoproduction, started on the fourth day after the operation, is divided into two periods (of 4 hours each), for collecting and measuring the secreted mucus. The action of the test drug is tested by administering it orally at the beginning of the second period of mucus collection and evaluating the percent increase in the mucus production (as measured gravimetrically) in the second period in comparison with the first period.

[7] = tested on: carrageenin induced oedema; test: Antiphlogistic activity, carrageenin induced oedema; format: in vivo, rat (Wistar albine, female); details: 3 h; rat, oral, one hour before carrageenin; paw volume at three hours; read-out: ED50 in mg/kg os.
Description: Method of the carrageenin induced oedema according to Winter C. A. et al.--proc. Soc. Exp. Biol. Med--111, 544-7, 1962.
Female Wistar albine rats (120-160 grams of body weight) are utilized.
The test drug is administered orally one hour before injection of a carrageenin water suspension into the right hind paw (1%, injected volume […]).
The volume of the injected paw is recorded simultaneously with the carrageenin injection and three hours after the same by a plethysmometer (U. Basile, mod. 7150-Comerio, Varese).

[8] = listed as compound of the present invention

Structure (SMILES)	ED50 [1] [mg/kg]	antipyretic activity ([1]; rat, oral, result in words)	gastric tolerability [2, 8]	gastric tolerability ([2]; listed as ester of formula (I))	gastric tolerability ([2]; listed as such compound)	LD50 at 336 h [3] [mg/kg]	acute toxicity [4]	ED50 [5] [mg/kg]	analgesic activity versus (+)6 methoxy-α-methyl-2-naphthalene acetic acid ([5]; result in words)	Percent increase of the bronchial mucus ([6]; 600 mg/kg os.) [%]	bronchosecretagogue / mucolytic activity [6, 8]	bronchosecretagogue / mucolytic activity ([6]; listed as ester of formula (I))	ED50 [7] [mg/kg]	Percent increase of the bronchial mucus ([6]; 300 mg/kg os.) [%]
COc1ccc2cc([C@H](C)C(=O)OCC3=CCC(C(C)(C)O)CC3)ccc2c1 (single isomer, unassigned; (+)) [CO/1446]	30	good antipyretic activity, though lower than the control	well tolerated by the gastric mucose of the rat	very good gastric tolerability	better tolerated than (+)6-methoxy-α-methyl-2-naphthalene acetic acid	4000	very low acute toxicity	3.9	significantly more active	32	has bronchosecretagogue activity in the rabbit	marked mucolytic activity of the bronchial secretion	30	–
COc1ccc2cc([C@H](C)C(=O)O)ccc2c1 [(+)6-methoxy-α-methyl-2-naphthalene acetic acid, reference compound]	14	–	–	–	–	–	–	18.5	–	–	–	–	35	0
